Experimental data: ChEMBL document CHEMBL4041536, “Design, synthesis and biological activity of novel molecules designed to target PARP and DNA” (Bioorg Med Chem Lett, 2017)
Values belong to the compound of their own block, whether it stands above or below them. Active and inactive are the calls of the source. The calls are words filed in the database; no cut-off is given here.

Key:
Cricetulus griseus [1] = organism: Cricetulus griseus; experiment: Selectivity ratio of PARP inhibition in chinese hamster VC8 cells harboring wild type BRCA2 to PARP inhibition in chinese hamster VC8 cells harboring BRCA2 mutant; format: cell-based
Cricetulus griseus [2] = organism: Cricetulus griseus; experiment: Inhibition of PARP in chinese hamster VC8 cells harboring BRCA2 mutant assessed as growth inhibition; format: cell-based
[3] = Inhibition of PARP (unknown origin); set-up: species or system Homo sapiens
[4] = (§1) Inhibition of PARP in chinese hamster VC8 cells harboring BRCA2 mutant; format: cell-based, Cricetulus griseus
[5] = Inhibition of PARP in Wistar rat pancreatic islet nuclear fraction using histone H1 as substrate in presence of [14C]NAD after 10 mins by scintillation counting method
Cricetulus griseus [6] = organism: Cricetulus griseus; experiment: Induction of DNA damage in chinese hamster VC8 cells harboring BRCA2 mutant by comet assay; format: cell-based
[7] = Drug uptake in nucleus of chinese hamster VC8 cells harboring wild type BRCA2 at 25 uM by DAPI staining based fluorescence microscopic method; format: ADME, Cricetulus griseus
[8] = Drug uptake in nucleus of chinese hamster VC8 cells harboring BRCA2 mutant at 25 uM by DAPI staining based fluorescence microscopic method; format: ADME, Cricetulus griseus
Cricetulus griseus [9] = organism: Cricetulus griseus; experiment: as §1; format: cell-based

SMILES: CN(CO)/N=N/c1cccc2c(=O)[nH]ccc12
Selectivity ratio (Cricetulus griseus [1]): 2 to 7
inhibition (Cricetulus griseus [2]): inactive

IC50 [3]: 5 to 120 µM
SMILES: Cc1nc2ccccc2c(=O)[nH]1

SMILES: CN/N=N/c1cccc2c(=O)[nH]ccc12
Selectivity ratio (Cricetulus griseus [1]): 2 to 7
inhibition (Cricetulus griseus [2]): inactive

SMILES: CN(CO)/N=N/c1ccc2c3c(cccc13)C(=O)NC2=O
Selectivity ratio (Cricetulus griseus [1]): 2 to 7
inhibition (Cricetulus griseus [2]): inactive

SMILES: CN/N=N/c1ccc2c3c(cccc13)C(=O)NC2=O
Selectivity ratio (Cricetulus griseus [1]): 2 to 7
inhibition (Cricetulus griseus [2]): inactive

SMILES: CN(C)/N=N/c1ccc2c3c(cccc13)C(=O)NC2=O
Selectivity ratio (Cricetulus griseus [1]): 2 to 7
inhibition (Cricetulus griseus [2]): inactive

SMILES: CN(C)/N=N/c1cccc2c(=O)[nH]ccc12
Selectivity ratio (Cricetulus griseus [1]): 2 to 7
inhibition (Cricetulus griseus [2]): inactive

SMILES: Nc1cccc2c(=O)[nH]ccc12
inhibition (Cricetulus griseus [2]): inactive

SMILES: O=c1[nH]ccc2c([N+]3=NN(CCCl)CC3)cccc12
IC50 [4]: 23.9 µM

SMILES: O=C1NC(=O)c2ccc(/N=N/N(CCCl)CCCl)c3cccc1c23
inhibition (Cricetulus griseus [2]): inactive

SMILES: Nc1ccc2c3c(cccc13)C(=O)NC2=O
Selectivity ratio (Cricetulus griseus [1]): 77
IC50 [4]: 2.59 µM

IC50 [5]: 5 to 120 µM
SMILES: NC(=O)c1cccc(N)c1 [3-AMINOBENZAMIDE]

SMILES: O=C1NC(=O)c2ccc([N+]3=NN(CCCl)CC3)c3cccc1c23.[Cl-]
Activity (Cricetulus griseus [6]): Active
Selectivity ratio (Cricetulus griseus [1]): 25
Drug uptake [7]: Not Active
Drug uptake [8]: Not Active
inhibition (Cricetulus griseus [9]): Dose-dependent effect
IC50 [4]: 1 to 1.7 µM

SMILES: ClCCN1CC[N+](c2ccc3ncnc(Nc4cccc(Cl)c4)c3c2)=N1
Activity (Cricetulus griseus [6]): Active
IC50 [4]: 15.2 µM
